Laboratory results: ChEMBL document CHEMBL3507680, “University of Dundee, Gates Library screen for HepG2 cell viability”

Test: Human HepG2 cell viability assay in 384 well format
Format: toxicity, cell-based
Set-up: dose 125 nL, time 70.5 hour; concentration not given beside the values
Conditions: HepG2 cells, read-out: Inhibition

Row | SMILES | cytotoxicity at 70.5 h [%]
1 | CCCc1cc(C(=O)N2CC(c3ccncc3)C2)ccn1 | 8.75
2 | CN(C)C(=O)N1Cc2nnn(C)c2C(COCC2CC2)C1 (stereo not drawn) | -6.79
3 | CC(C)COc1cncc(NC(CO)c2ccco2)n1 (stereo not drawn) | 11.4
4 | CCOCC1CC2(CCN(C(=O)c3cscn3)CC2)CO1 (stereo not drawn) | -9.28
5 | CCOc1ccc(N2CCCN=C2NC(=O)c2ccccc2C)cc1 | -12.8
6 | Cc1cnn(CC(C)NCc2cc(C#N)ccc2F)c1 (stereo not drawn) | -5.57
7 | CCn1ncc(CNC(=O)c2cn(CCC3CCCCN3)nn2)c1C (stereo not drawn) | -6.28
8 | CC(C)CS(=O)(=O)N1C[C@H]2C[C@H](C(=O)N3CCOCC3)[C@@H](C1)O2 | 13.9
9 | Cc1nc(C)n(C2CCCN(C(=O)c3csc(C)n3)C2)n1 (stereo not drawn) | -5.49
10 | COCCOCC(=O)N1CCc2cc(Cl)cc(Cl)c2C1 | -6.61
11 | COC(=O)N1CCc2ccccc2C1C(=O)NCc1ccccn1 (stereo not drawn) | 0.0153
12 | CC(C)(C)C1CCC(O)(CNC(=O)CCS(C)(=O)=O)CC1 (stereo not drawn) | -4.23
13 | c1ccc(-c2nnc([C@H]3CCN(C4CCOCC4)C3)o2)cc1 | -0.562
14 | CCn1nc(C)c(C(C)NC(=O)c2cnc(N(C)C)nc2C)c1C (stereo not drawn) | 1.08
15 | C[C@H]1C[C@H]2CN(C(=O)c3cccc4c3OCCO4)CC[C@H]2O1 | 32.2
16 | COc1ccc(OCCN2CCCN(Cc3noc(C)n3)CC2)cc1 | 30.5
17 | c1csc(-c2cc(CN3CCN(c4cnccn4)CC3)no2)c1 | -14.8
18 | CCCOc1cc(C)ccc1NC(=O)N(C)C | 4.68
19 | Cc1[nH]ncc1CCCNC(=O)N1CCCC(c2nncn2C)C1 (stereo not drawn) | -1.78
20 | O=C(NCCn1cccc1)C1CCCOC1 (stereo not drawn) | -5.7
21 | CN(C)C(=O)CNC(=O)c1ccc2ccc(N(C)CC3CC3)n2c1 | -12.4
22 | CCN1CCN(CC(O)c2cc(Cl)ccc2Cl)CC1 (stereo not drawn) | -8.52
23 | Cc1nnc(NCc2ccccc2S(=O)(=O)N(C)C)c(C#N)c1C | 0.114

Row | SMILES | cytotoxicity at 70.5 h [%]
24 | CCN(CCC(=O)OC)S(=O)(=O)c1cnc2c(c1)c(C)nn2C | -4.3
25 | O=C1COC2(CCN(Cc3ccoc3)CC2)CN1 | -30.5
26 | FC(F)(F)c1n[nH]c2c1CN(Cc1cn3ccccc3n1)CC2 | -6.32
27 | CN1CC(=O)N(c2ccccc2)CC12CCN(CC1CC1)C2 (stereo not drawn) | -26.6
28 | Cc1noc([C@]23COC[C@H]2CN(S(C)(=O)=O)C3)n1 | -1.56
29 | Cc1ccc(C(=O)N2CCCC(c3nncn3C)C2)c(C)c1 (stereo not drawn) | -4.5
30 | Cc1noc(C(C)N2CCN(Cc3ccco3)CC2)n1 (stereo not drawn) | -11.9
31 | COCCNC(=O)C1CCCN(c2ccc3nncn3n2)C1 (stereo not drawn) | 9.49
32 | C=C(Cl)CN(C)C1CCN(CCc2ccccn2)CC1 | -6.31
33 | COCCN1C(=O)CO[C@H]2CN(Cc3c[nH]nc3-c3ccccc3)C[C@@H]21 | -9.3
34 | Cc1noc(C)c1CN1CCCC(c2noc(C3CC3)n2)C1 (stereo not drawn) | -7.9
35 | Cc1ccc(C(=O)N2C[C@@H]3CCN(C(C)C)C[C@@H]3C2)cn1 | 0.492
36 | CO[C@H]1CN(C(=O)c2ccc(C)o2)[C@@H]2CCCO[C@H]12 | -0.145
37 | O=C(NCC1CCS(=O)(=O)C1)c1sccc1-c1ccc(F)cc1 (stereo not drawn) | 8.07
38 | CC(C)CC(=O)NS(=O)(=O)c1ccc2c(c1)OCCCO2 | -8.04
39 | CCCN1CCN(C(=O)c2cccc3cccnc23)[C@H]2CS(=O)(=O)C[C@H]21 | 25.6
40 | Cc1ccc(OCC(C)NS(C)(=O)=O)cc1 (stereo not drawn) | -4.31
41 | Cc1ccc(N2N=C(C(=O)O)S(=O)(=O)c3cccnc32)cc1 | -8.77
42 | Nc1no[n+]([O-])c1C(=O)NCc1ccco1 | 7.08
43 | c1sc(C2CCCCC2)nc1CN1CCn2c(nnc2C2CC2)C1 | -3.37
44 | COc1cccc(Cn2c(C)c(C)oc2=O)c1OC | 1.78
45 | c1ccc(-c2noc(CNC3CCCN(c4cccnn4)C3)n2)nc1 (stereo not drawn) | 0.881
46 | CCn1ccnc1C1CCN(C(=O)Nc2ccc(OC)cc2)CC1 | 29.5

Row | SMILES | cytotoxicity at 70.5 h [%]
47 | C[C@@H]1CN(C(=O)c2c[nH]c(=O)c(Cl)c2)CC[C@@]1(O)C1CCOCC1 | -1.04
48 | CN(C)C(=O)CCCNC(=O)C(c1cccc(F)c1)N(C)C (stereo not drawn) | 3.05
49 | O=C(Nc1ccccc1)C1CN(C(=O)c2cccs2)CC12CCOCC2 (stereo not drawn) | -0.505
50 | O=C1CC(c2cccs2)Cc2[nH]c(=O)ccc21 (stereo not drawn) | -7.47
51 | Cc1nc(C)c(C(=O)NCCNC(=O)Cc2ccc(F)cc2)s1 | 10.7
52 | Cc1ccc(-c2nc(CN3CCc4c(ncn4C)C3)cs2)o1 | 36.9
53 | Cc1nc(C(C)C)sc1C(=O)NCCNc1ncccc1C#N | -1.44
54 | Cc1ccc(C(=O)N2CCCC(n3cncn3)C2)o1 (stereo not drawn) | 1.71
55 | Cc1nc(CN(C)C2CCN(Cc3ccc4c(c3)OCCO4)C2)no1 (stereo not drawn) | -2.2
56 | c1ccc(CCc2noc(CN3CCC(N4CCSCC4)CC3)n2)cc1 | -2.58
57 | CC(C)CNC(=O)[C@H]1CCS(=O)(=O)[C@@H]2CN(Cc3cccc(Cl)c3)C[C@H]12 | 24.3
58 | Cc1nn(C)c2cnn(Cc3ccc(C(=O)NC4CC4)o3)c12 | -1.57
59 | CCC(C)[C@H](NC(=O)c1ccc(F)cc1-n1cnnn1)C(=O)OC (stereo partly drawn) | -10.7
60 | CCn1cc(C(=O)Nc2cc(C(=O)OC)ccc2C(=O)OC)cn1 | -9
61 | CN(C)C(CNCc1nc(-c2ccsc2)no1)c1ccsc1 (stereo not drawn) | 4.31
62 | Cc1ccccc1CN1C[C@@H]2OCC(=O)N(CC(N)=O)[C@@H]2C1 | -0.694
63 | O=C(c1ncoc1C1CCCO1)N1CC2(CCCC2)c2ccccc21 (stereo not drawn) | -6.29
64 | Cc1noc(C(C)C)c1C(=O)NS(=O)(=O)c1cccnc1 | 17.5
65 | OC(CN1CCN(Cc2nnc(C3CC3)o2)CC1)c1ccccc1 (stereo not drawn) | -20.3
66 | CCc1nnc2n1CCN(C(=O)c1cc3c(F)cccc3[nH]1)C2 | -6.74
67 | CC1CCN(CC2(O)CCCN(Cc3cccc(F)c3F)C2=O)CC1 (stereo not drawn) | 1.43
68 | Cc1ccc(C(=O)NC2CCN(C(=O)Nc3ccccn3)CC2)s1 | 11.7
69 | CCn1cc(NC(=O)C2CCN(Cc3nc(C(C)C)no3)CC2)cn1 | -6.8

Row | SMILES | cytotoxicity at 70.5 h [%]
70 | COCCNC(=O)c1sc(Nc2ccc(Cl)cn2)nc1C | -13.2
71 | Cc1cccc(N2CCN(C(=O)CCc3c(C)noc3Cl)CC2)c1 | -8.69
72 | Cc1ccc(C(C)NC(=O)Cc2c(C)nc3cc(=O)[nH]n3c2C)s1 (stereo not drawn) | -10.8
73 | COCCN1C[C@H]2CC[C@@H]1CN(CC(=O)Nc1ccn(C)n1)C2 | -9.39
74 | Cc1nn(C)c(N2CCOCC2)c1CNC(C)c1ccco1 (stereo not drawn) | 10.7
75 | CC(C)Cc1noc(CN(C)C(=O)C2COc3ccccc3C2)n1 (stereo not drawn) | -14.4
76 | O=C1CSC(c2ccsc2)c2c(n(C3CCCC3)[nH]c2=O)N1 (stereo not drawn) | -12.7
77 | CN(CC(=O)N1CCOC(CCc2ccccc2)C1)Cc1ccccn1 (stereo not drawn) | -7.68
78 | Cc1nccn1CCC1CCN(C(=O)C2CC3(CCNCC3)CN2)CC1 (stereo not drawn) | -8.48
79 | Cc1nc(C)n(C2CCCN(C(=O)c3ccccc3C)C2)n1 (stereo not drawn) | -7.9
80 | Oc1cc(CNCCCN2CCCC2)nc2ccc(F)cc12 | 12.5
81 | Cn1c(CCNc2nccnc2C#N)nc2ccc(F)cc21 | 2.09
82 | CC(=O)N1CCN(Cc2c(C)ccc3ccccc23)CC(O)C1 (stereo not drawn) | -6.49
83 | Cn1cnc2c1CCN(CCCS(=O)(=O)c1ccccc1)C2 | 24.3
84 | C=Cc1ccc(C(=O)NC2CCCc3nc(N(C)C)ncc32)cc1 (stereo not drawn) | 16.1
85 | Cc1nn(C)c(C)c1C1CCCN1C(=O)c1ccc2nnc(C)n2c1 (stereo not drawn) | -2.36
86 | CC(OCC1CC1)C(=O)N1CCCN(Cc2cscn2)CC1 (stereo not drawn) | 1.88
87 | CC(C)N1C(=O)CN(CCOCCO)CC1(C)C | -1.37
88 | O=C(Cc1ccccc1)N1Cc2nccn2CC(CN2CCCC2)C1 (stereo not drawn) | -0.449
89 | CC(=O)NCCNC(=O)c1cnc2c(c1)nc(-c1ccccc1Cl)n2C | -6
90 | Cc1ccc(C)c2c(O)cc(CNCC(=O)N3CCCC3)nc12 | 22
91 | CCCC(C)N(C)C(=O)c1nc(S(C)(=O)=O)n2ccccc12 (stereo not drawn) | 0.813
92 | CS(=O)(=O)c1cccc(OCC(=O)N2CCCC2c2ccccc2Cl)c1 (stereo not drawn) | -2.69

Row | SMILES | cytotoxicity at 70.5 h [%]
93 | CC(C)CC(C)N(C)C(=O)CCn1cccn1 (stereo not drawn) | -6.33
94 | Cc1cnn(CC2CCCN2C(=O)c2ccc(OCC3CC3)nc2)c1 (stereo not drawn) | -6.47
95 | Cc1noc(C)c1CN1CCCC2(CCN(C(=O)NC3CC3)C2)C1 (stereo not drawn) | 1.02
96 | c1coc(CN2Cc3ccnn3CC(COCC3CC3)C2)c1 (stereo not drawn) | -6.27
97 | CS(=O)(=O)N[C@@H]1CCO[C@]2(CCN(C(=O)c3cscn3)C2)C1 | -7.64
98 | Cc1cc(C(=O)NCc2cccs2)nc(N2CCCC2)n1 | -6.4
99 | CCN1C(=O)CC(c2ccccc2)C12CCN(c1ncc(C)cn1)CC2 (stereo not drawn) | -3.7
100 | CCOC(=O)N1CCN(C(=O)c2sc(-c3ccccc3)nc2C)CC1 | 48.7
101 | Cc1cc(N2CCCN(C(=O)Cc3cc(F)cc(F)c3)CC2)ccn1 | -1.71
102 | CC(C)(NS(C)(=O)=O)C(=O)NCCc1csc2ccccc12 | 4.98
103 | Cn1cc(C(=O)NCC2CCN(C(=O)NC3CCCCC3)CC2)cn1 | -15.9
104 | Cc1cnn(CC2CN(c3ncnc4c3CCC4)CCO2)c1 (stereo not drawn) | -1.52
105 | OC1CCN(C2CCN(Cc3cccc(Cn4cccn4)c3)CC2)CC1 | 5.45
106 | COc1c(C)cnc(CN2CCn3c(nnc3C3CC3)C2)c1C | -2.97
107 | CCC(=O)N1CCN(c2cc(N(C)C)cnn2)CC1 | -10.5
108 | Cc1ccc(N2CCC3(CCCN3Cc3ccn(C)n3)CC2)nn1 | -2.31
109 | CC(c1cc(O)nc(NC2CCCC2)n1)n1ncc2ccccc2c1=O (stereo not drawn) | -8.36
110 | c1ccc(Cc2nnc(CN3CCCC(Cn4cncn4)C3)o2)cc1 (stereo not drawn) | -13.3
111 | CN(C)CCN1CCc2c(nnn2C)C1COCc1ccccc1 (stereo not drawn) | 10.5
112 | Cc1ncsc1CCC(=O)NC1CCN(c2ncccc2C#N)CC1 | -13.1
113 | Cc1ccccc1CS(=O)(=O)Cc1nc(C2CC2)no1 | -3.39
